Here are results for 22 compounds from ChEMBL document CHEMBL1136849, “Anthranilimide based glycogen phosphorylase inhibitors for the treatment of type 2 diabetes. Part 3: X-ray crystallographic characterization, core and urea optimization and in vivo efficacy” (Bioorg Med Chem Lett, 2009).

Usually pIC50 stands for the negative decadic logarithm of the IC50, by convention in mol/L. What is called Cmax is the highest concentration seen after dosing. For orientation: half-life means the time needed for the level to fall by half in the phase considered. By bioavailability is commonly meant the share of a dose that reaches the circulation, judged against a reference dose that is usually intravenous.

Data set [1] deals with T1, Glycogen phosphorylase, liver form (Homo sapiens, UniProt P06737).
T1 sequence (P06737 whole entry): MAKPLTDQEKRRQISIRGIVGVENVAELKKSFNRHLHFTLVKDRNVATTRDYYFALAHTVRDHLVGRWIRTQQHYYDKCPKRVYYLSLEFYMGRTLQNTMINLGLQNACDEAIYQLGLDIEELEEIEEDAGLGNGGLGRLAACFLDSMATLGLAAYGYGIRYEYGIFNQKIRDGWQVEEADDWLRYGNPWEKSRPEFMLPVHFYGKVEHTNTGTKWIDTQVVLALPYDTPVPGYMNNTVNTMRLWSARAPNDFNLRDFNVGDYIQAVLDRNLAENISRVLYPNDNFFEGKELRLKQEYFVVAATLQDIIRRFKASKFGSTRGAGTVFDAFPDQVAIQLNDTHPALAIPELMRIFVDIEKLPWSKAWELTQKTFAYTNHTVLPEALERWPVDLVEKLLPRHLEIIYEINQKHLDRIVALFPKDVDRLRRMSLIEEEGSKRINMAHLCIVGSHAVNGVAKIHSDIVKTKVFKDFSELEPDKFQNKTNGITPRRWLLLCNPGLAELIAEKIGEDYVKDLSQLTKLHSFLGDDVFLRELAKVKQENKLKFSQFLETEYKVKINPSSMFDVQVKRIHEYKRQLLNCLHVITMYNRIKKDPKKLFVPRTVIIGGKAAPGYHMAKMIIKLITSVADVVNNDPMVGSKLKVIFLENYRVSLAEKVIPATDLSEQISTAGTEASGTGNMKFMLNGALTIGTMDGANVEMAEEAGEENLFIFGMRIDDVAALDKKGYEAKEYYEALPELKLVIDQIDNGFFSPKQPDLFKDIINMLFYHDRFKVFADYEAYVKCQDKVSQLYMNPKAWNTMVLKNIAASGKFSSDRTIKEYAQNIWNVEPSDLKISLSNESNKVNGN
In words: Inhibition of human liver glycogen phosphorylase a by coupled kinetic fluorescent intensity assay.

In data set [2] the target is T1, Glycogen phosphorylase, liver form. In words: Inhibition of human glycogen phosphorylase a in HepG2 cells assessed as inhibition of forskolin-stimulated glycogenolysis. Type of data set: cell-based.
Data set [3] relates to Rattus norvegicus. In words: Reduction of glucagon-induced glucose AUC in CD rat at 5 mg/kg, po preincubated for 2 hrs before glucagon challenge. Type of data set: functional. Details: scale not given: the % may be the effect or the level left.
Data set [4] is described as follows: Cmax in rat at 5 mg/kg, po. The conditions noted are these: in vivo. Details: dose 5 mg/kg, route oral. Type of data set: ADME, organism-based.
Data set [5] concerns Rattus norvegicus. In words: Reduction of glucagon-induced glucose AUC in CD rat at 2 mg/kg, po preincubated for 2 hrs before glucagon challenge. Type of data set: functional. Details: scale not given: the % may be the effect or the level left.
Another data set relates to Mus musculus. In words: Antidiabetic effect in ob/ob B6.V-lep[ob]/J mouse assessed as decrease in blood glucose level at 15 mg/kg, po after 3 hrs. Type of data set: functional.
Data set [6] can be described thus: Half life in rat at 1 mg/kg, iv and 5 mg/kg, po. The format is ADME, organism-based. The note with it: in vivo.
Data set [7] is described as follows: Bioavailability in rat at 1 mg/kg, iv and 5 mg/kg, po. The format is ADME, organism-based. The conditions noted are these: in vivo.
The nature of data set [8]: Clearance in rat at 1 mg/kg, iv and 5 mg/kg, po. Type of data set: ADME, organism-based. The conditions noted are these: in vivo.

The structures appear in SMILES notation. pIC50: −log10 of the molar value.

`CCCc1cc(C)c(NC(=O)Nc2cc(-c3ccc(F)c(F)c3)ccc2C(=O)N[C@H](C(=O)O)[C@@H](C)OC(C)(C)C)c(C)c1`: the negative-log IC50 (pIC50) in data set [1] was 8.15; in data set [2], 6.74.

In the case of `CCCc1cc(C)c(NC(=O)Nc2cc(-c3cccc(F)c3)ccc2C(=O)N[C@H](C(=O)O)[C@@H](C)OC(C)(C)C)c(C)c1`, the negative logarithm of the IC50 (pIC50) in data set [1] is 8.40; in data set [2], 6.81.

For the compound `Cc1cc(CC2CC2)cc(C)c1NC(=O)Nc1cc(-c2cccc(F)c2)ccc1C(=O)N[C@H](C(=O)O)[C@@H](C)OC(C)(C)C`, the Activity amounted to 65% with Rattus norvegicus [3], 62% in the data set with Rattus norvegicus [5] and 103 mg/dL in the data set with Mus musculus. Also, the Cmax in data set [4] was 536 ng/mL. In [6], this compound gave a half-life of 2.3 h. In addition, the bioavailability in data set [7] was 27%. Further, the clearance in data set [8] was found to be 15 mL/min/kg. Further, in [2], the negative-log IC50 (pIC50) is 6.84.

In the case of `Cc1cc(CC2CC2)cc(C)c1NC(=O)Nc1cc(F)ccc1C(=O)N[C@H](C(=O)O)[C@@H](C)OC(C)(C)C`, the pIC50 is 8.40 in data set [1] and 6.88 in data set [2]. Also, the figures for the Activity with Rattus norvegicus [3] and in the data set on Rattus norvegicus [5] were 36% and 22%, respectively.

Consider `COc1ccc(-c2ccc(C(=O)N[C@H](C(=O)O)[C@@H](C)OC(C)(C)C)c(NC(=O)Nc3c(C)cc(C)cc3C)c2)cc1`, for which the pIC50 in [1] was 8.52; in data set [2], 7.47.

Regarding `Cc1cc(C)c(NC(=O)Nc2cc(-c3ccccc3)ccc2C(=O)N[C@H](C(=O)O)[C@@H](C)OC(C)(C)C)c(C)c1`, the pIC50 in data set [1] was 8.00; in data set [2], 6.90.

As for `Cc1cc(C)c(NC(=O)Nc2cc(-c3ccc(F)cc3)ccc2C(=O)N[C@H](C(=O)O)[C@@H](C)OC(C)(C)C)c(C)c1`, the pIC50 is 8.15 in data set [1] and 7.06 in data set [2].

Turning to `CCCc1cc(C)c(NC(=O)Nc2cc(F)ccc2C(=O)N[C@H](C(=O)O)[C@@H](C)OC(C)(C)C)c(C)c1`, the pIC50 in data set [1] is 8.00; in data set [2] it was 6.83.

For `Cc1cc(C)c(NC(=O)Nc2cc3ccccc3cc2C(=O)N[C@H](C(=O)O)[C@@H](C)OC(C)(C)C)c(C)c1`, in the data set with Rattus norvegicus [3], the Activity came to 25%.

As to `Cc1cc(CC2CC2)cc(C)c1NC(=O)Nc1cc(F)ccc1C(=O)N[C@H](C(=O)O)C1CCCCC1`, the pIC50 in [1] was 7.89; in data set [2], 6.42.

As to `CCCc1cc(C)c(NC(=O)Nc2cc(F)ccc2C(=O)N[C@H](C(=O)O)C2CCCCC2)c(C)c1`, the figures for the pIC50 in data set [1] and in [2] were 7.72 and 6.64, respectively.

With `CCc1cc(C)c(NC(=O)Nc2cc(F)ccc2C(=O)N[C@H](C(=O)O)C2CCCCC2)c(C)c1`, the pIC50 was 7.06 in data set [1] and 6.29 in [2].

Regarding `Cc1cc(C)c(NC(=O)Nc2cc(F)ccc2C(=O)N[C@H](C(=O)O)C2CCCCC2)c(C)c1`, the values for the pIC50 in data set [1] and in [2] were 6.84 and 5.99, respectively.

On to `Cc1cccc(C)c1NC(=O)Nc1cc(F)ccc1C(=O)N[C@H](C(=O)O)C1CCCCC1`, for which the pIC50 was 5.97 in data set [1] and 5.08 in data set [2].

Take `CCCCc1cc(C)c(NC(=O)Nc2cc(F)ccc2C(=O)N[C@H](C(=O)O)C2CCCCC2)c(C)c1`: the pIC50 in data set [1] was 7.31; in data set [2], 6.15.

Take `Cc1cc(C)c(NC(=O)Nc2cc(-c3cccc(F)c3)ccc2C(=O)N[C@H](C(=O)O)[C@@H](C)OC(C)(C)C)c(C)c1`: the negative logarithm of the IC50 (pIC50) is 7.82 in [1] and 6.98 in data set [2]. Moreover, the Activity in the data set on Rattus norvegicus [3] was 32%; in the data set with Rattus norvegicus [5] it was 10%.

With `COc1cccc(-c2ccc(C(=O)N[C@H](C(=O)O)[C@@H](C)OC(C)(C)C)c(NC(=O)Nc3c(C)cc(C)cc3C)c2)c1`, the pIC50 in data set [1] was 8.10; in [2], 6.96.

Consider `CCCc1cc(C)c(NC(=O)Nc2cc(-c3ccc(OC)cc3)ccc2C(=O)N[C@H](C(=O)O)[C@@H](C)OC(C)(C)C)c(C)c1`, for which the negative-log IC50 (pIC50) in [2] is 6.87.

Turning to `Cc1cc(C)c(NC(=O)Nc2cc(-c3ccc(F)c(F)c3)ccc2C(=O)N[C@H](C(=O)O)[C@@H](C)OC(C)(C)C)c(C)c1`, the figures for the pIC50 in data set [1] and in data set [2] were 7.89 and 6.77, respectively.

In the case of `Cc1cc(C)c(NC(=O)Nc2cc(F)ccc2C(=O)N[C@H](C(=O)O)[C@@H](C)OC(C)(C)C)c(C)c1`, the negative-log IC50 (pIC50) in data set [1] was 6.30; in data set [2], 5.74.

Consider `Cc1cc(C)c(NC(=O)Nc2ccccc2C(=O)N[C@H](C(=O)O)[C@@H](C)OC(C)(C)C)c(C)c1`, for which the pIC50 in data set [1] is 6.27; in [2], 5.77.

As for `COc1ccccc1-c1ccc(C(=O)N[C@H](C(=O)O)[C@@H](C)OC(C)(C)C)c(NC(=O)Nc2c(C)cc(C)cc2C)c1`, the negative-log IC50 (pIC50) in [1] is 7.55; in data set [2], 6.45.
